Patent publication US20200131144A1, “AMINE OR (THIO)AMIDE CONTAINING LXR MODULATORS” (Phenex-FXR GmbH, priority 2017, published 2020)

What was measured:
[1] = target: T1, GST-LXRβ ligand-binding domain (Homo sapiens, UniProt P55055, INS174Q); experiment: TR-FRETβ activity assay (NCoA3 coactivator peptide recruitment); type: biochemical; settings: 1 μM 24(S)-25-epoxycholesterol as prestimulating agonist; inverse agonist unless *
T1 construct: amino acids 156-461; NP009052; made in house; host or cells: E. coli
T1 sequence (P55055 with tags, fused parts or gaps INS174Q limits assumed): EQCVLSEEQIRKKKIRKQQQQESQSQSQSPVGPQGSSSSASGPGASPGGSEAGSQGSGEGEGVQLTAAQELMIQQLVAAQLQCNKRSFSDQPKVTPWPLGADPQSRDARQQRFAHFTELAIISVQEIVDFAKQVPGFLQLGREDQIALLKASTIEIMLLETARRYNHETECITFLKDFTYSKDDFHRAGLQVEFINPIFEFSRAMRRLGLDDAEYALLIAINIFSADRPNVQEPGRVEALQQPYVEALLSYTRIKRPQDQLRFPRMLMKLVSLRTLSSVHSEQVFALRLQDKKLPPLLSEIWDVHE
In short: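 Coactivator recruitment read as TR-FRET (ex 340, em 615 and 665 nm) after 1 h equilibration at 4° C, in triplicate. Mix held 76 nM GST-tagged LXRβ LBD (aa 156-461, E. coli), 400 nM biotin-NCoA3 peptide, Tb-cryptate anti-GST, streptavidin-XL665, 240 mM KCl buffer.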

LXRα full length (FL) = target: T2, LXRα full length (FL) (Homo sapiens, UniProt Q13133); experiment: LXR Gal4 reporter transient transfection assay, mammalian two-hybrid, FL-M2H Gal4α; type: cell-based; settings: HEK293 cells; inverse agonist unless *
T2 construct: the full length (FL) proteins of LXRα (amino acids 1-447); NP005684; expressed in transfected cells; host or cells: HEK293
T2 sequence (Q13133 1-447): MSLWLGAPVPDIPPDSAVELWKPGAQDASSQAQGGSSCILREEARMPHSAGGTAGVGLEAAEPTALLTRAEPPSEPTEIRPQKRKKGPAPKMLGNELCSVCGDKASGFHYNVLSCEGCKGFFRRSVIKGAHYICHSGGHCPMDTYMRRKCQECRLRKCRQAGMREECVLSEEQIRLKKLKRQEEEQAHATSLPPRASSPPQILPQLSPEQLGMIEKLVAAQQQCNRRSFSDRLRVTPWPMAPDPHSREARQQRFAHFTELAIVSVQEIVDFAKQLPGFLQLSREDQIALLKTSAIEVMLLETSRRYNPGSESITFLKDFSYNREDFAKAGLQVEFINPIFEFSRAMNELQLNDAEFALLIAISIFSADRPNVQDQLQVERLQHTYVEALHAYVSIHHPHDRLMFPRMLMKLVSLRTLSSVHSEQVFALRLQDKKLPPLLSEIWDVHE
In short: (§1)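 Mammalian two-hybrid read-out: interaction of LXRα or LXRβ (full length or ligand-binding domain, NFkB activation-domain fusions) with GAL4-fused SRC1 or NCoR domains drives GAL4-responsive firefly luciferase in HEK293 cells, normalised by Renilla cotransfection. Compounds given 4 h after transfection, ≤0.2% vehicle, cells lysed after 16 h.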

LXRβ full length (FL) = target: T3, LXRβ full length (FL) (Homo sapiens, UniProt P55055, INS174Q); experiment: LXR Gal4 reporter transient transfection assay, mammalian two-hybrid, FL-M2H Gal4β; type: cell-based; settings: HEK293 cells; inverse agonist unless *
T3 construct: the full length (FL) proteins of LXRα (amino acids 1-447); NP005684; NP009052; expressed in transfected cells; host or cells: HEK293
T3 sequence (P55055 with tags, fused parts or gaps INS174Q): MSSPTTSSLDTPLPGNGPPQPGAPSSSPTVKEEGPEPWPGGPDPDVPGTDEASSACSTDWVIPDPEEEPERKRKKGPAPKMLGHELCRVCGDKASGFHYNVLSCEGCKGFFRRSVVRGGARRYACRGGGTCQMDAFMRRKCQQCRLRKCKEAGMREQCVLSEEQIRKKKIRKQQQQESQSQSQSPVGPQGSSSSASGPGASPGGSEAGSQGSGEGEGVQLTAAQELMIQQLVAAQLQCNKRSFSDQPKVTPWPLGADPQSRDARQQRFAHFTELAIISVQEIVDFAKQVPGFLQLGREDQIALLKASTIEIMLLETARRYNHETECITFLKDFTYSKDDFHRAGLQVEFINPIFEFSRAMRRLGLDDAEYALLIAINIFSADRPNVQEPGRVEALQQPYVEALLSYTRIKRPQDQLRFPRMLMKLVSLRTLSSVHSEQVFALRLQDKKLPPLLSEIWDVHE
In short: as §1

[2] = Pharmacokinetics in mice after single oral dosing, blood and liver exposure by LC-MS; type: in vivo, mice (C57/bl6/J); settings: for Kp at 4 h / Kp at 12 h: male, C57/bl6/J, mouse, liver/blood, read-out: liver/blood ratio; for Kp at 4 h / blood/plasma exposure / liver exposure / Kp at 12 h: single oral dose 20 mg/kg
Method: The pharmacokinetics of the compounds was assessed in mice after single dosing and oral administrations. Blood and liver exposure was measured via LC-MS.
The study design was as follows:
Animals: C57/bl6/J (Janvier) males Diet: standard rodent chow Dose: 20 mg/kg Animal handling: animals were withdrawn from food at least 12 h before administration Design: single dose oral administration, n=3 animals per group Sacrifice: at stated time point (4, 12 or 24 h) after administration Bioanalytics: LC-MS of liver and blood samples

SMILES	EC50 [1]	EC50 (LXRα full length (FL))	EC50 (LXRβ full length (FL))	Kp at 4 h ([2]; time point 4 h)	blood/plasma exposure ([2]; time point 4 h)	liver exposure ([2]; time point 4 h)	Kp at 12 h ([2]; time point 12 h)	blood/plasma exposure ([2]; time point 12 h)	liver exposure ([2]; time point 12 h)	oral bioavailability ([2]; single dose oral administration, 20 mg/kg)
Cc1ccc2ccccc2c1C(=O)N(Cc1ccc(-c2cccc(C(C)(C)C(=O)NO)c2)cc1)Cc1ccc(C(F)(F)F)o1 [5/3]	< 100 nM	< 100 nM	< 100 nM	7.6	0.08 µM	0.61 µM				
Cc1ccc2c(F)cccc2c1C(=O)N(Cc1ccc(-c2cccc(C(C)(C)C(=O)O)c2)cc1)Cc1ccc(C(F)(F)F)o1 [27/12]	< 100 nM	< 100 nM	< 100 nM				11	3.99 µM	43.7 µM	
Cc1c(CN(Cc2ccc(-c3cccc(C(C)(C)C(=O)O)c3)cc2)Cc2ccc(C(F)(F)F)o2)c2ccccc2n(C)c1=O [27/23]	100 to 1000 nM	< 100 nM	< 100 nM	19	0.15 µM	2.9 µM				
COC(=O)CS(=O)(=O)c1cccc(-c2ccc(CN(Cc3ccc(C(F)(F)F)o3)C(C)c3cccc4ccccc34)cc2)c1 (stereo not shown) [Example 6, Methyl 2-((4′-(((1-(naphthalen-1-yl)ethyl)((5-(trifluoromethyl)furan-2-yl)methyl)amino)methyl)-[1,1′-biphenyl]-3-yl)sulfonyl)acetate]				45	0.20 µM	9.08 µM				
Cc1nc2cccnc2c(C(=O)N(Cc2ccc(-c3cccc(C(C)(C)C(=O)O)c3)cc2)Cc2ccc(C#N)o2)c1C [Example 33/1]	100 to 1000 nM	< 100 nM	< 100 nM							
Cc1nc2ccc(=O)[nH]c2c(C(=O)N(Cc2ccc(-c3cccc(C(C)(C)C(=O)O)c3)cc2)Cc2ccc(C(F)(F)F)o2)c1C [Example 36, 2-(4′-((2,3-Dimethyl-6-oxo-N-((5-(trifluoromethyl)furan-2-yl)methyl)-5,6-dihydro-1,5-naphthyridine-4-carboxamido)methyl)-[1,1′-biphenyl]-3-yl)-2-methylpropanoic acid]	1000 to 10000 nM	1000 to 10000 nM	1000 to 10000 nM							
CCOC(=O)c1ccc(CN(Cc2ccc(-c3cccc(S(C)(=O)=O)c3)cc2)S(=O)(=O)c2c(C)cc(C)cc2C)o1 [SR9238, reference compound]										not orally bioavailable and hepatoselective

Further lines, with some results ahead:

EC50 [1]	EC50 (LXRα full length (FL))	EC50 (LXRβ full length (FL))	Kp at 4 h ([2]; time point 4 h)	blood/plasma exposure ([2]; time point 4 h)	liver exposure ([2]; time point 4 h)	Kp at 12 h ([2]; time point 12 h)	blood/plasma exposure ([2]; time point 12 h)	liver exposure ([2]; time point 12 h)	SMILES	oral bioavailability ([2]; single dose oral administration, 20 mg/kg)
1000 to 10000 nM	1000 to 10000 nM	100 to 1000 nM	44	0.01 µM	0.42 µM				N#Cc1ccc2ccccc2c1CN(Cc1ccc(-c2cccc(S(=O)(=O)CC(=O)O)c2)cc1)Cc1ccc(C(F)(F)F)o1 [7/7]	
						2.4	0.34 µM	0.83 µM	Cc1cc(C)c(CN(Cc2ccc(-c3cncc(S(=O)(=O)CC(=O)O)c3)cc2)Cc2ccc(C(F)(F)F)o2)c(C)c1 [12/2]	
100 to 1000 nM	1000 to 10000 nM	100 to 1000 nM	64	1.0 µM	64 µM				Cc1cc(C)c(CN(Cc2ccc(-c3cc(F)c(CO)c(S(=O)(=O)CC(=O)O)c3)cc2)Cc2ccc(C(F)(F)F)o2)c(C)c1 [20/1]	
1000 to 10000 nM	100 to 1000 nM	100 to 1000 nM	178	0.01 µM	1.41 µM				Cc1ccc2ccccc2c1CN(Cc1ccc(C(F)(F)F)o1)Cc1ccc(-c2cncc(S(=O)(=O)CC(=O)O)c2)cc1Cl [26/8]	
1000 to 10000 nM	100 to 1000 nM	< 100 nM	86	0.21 µM	18 µM				Cc1ccc2ccccc2c1CN(Cc1ccc(-c2cccc(S(=O)(=O)CC(=O)O)c2)cc1)Cc1ccc(C(F)(F)F)o1 [Example 7/1]	
< 100 nM	100 to 1000 nM	100 to 1000 nM				2.7	0.57 µM	1.5 µM	Cc1cc(C)c(CN(Cc2ccc(-c3cccc(C(C)(C)C(=O)O)c3)cc2)Cc2ccc(C(F)(F)F)o2)c(C)c1 [Example 10]	
